# Reference: US12128132B2, “Drug delivery formulations” (MedinCell S.A., priority 2019, dated 2024)
# Assay: Stability of risperidone stock solution
# Format: physicochemical
# Settings: 200 μg/mL in acetonitrile/H2O (50/50 v/v), stored at +2-8° C.
# Protocol: Starting from this mother solution, calibration standards were prepared by dilution in the same sample solvent mixture as above. Six dilutions were performed to obtain calibration standards of 1, 5, 10, 25, 50, 100 and 200 μg/mL.
compound,measurement,value
Cc1nc2n(c(=O)c1CCN1CCC(c3noc4cc(F)ccc34)CC1)CCCC2 [risperidone],stability of stock solution,≥ 5 months
